How the values were obtained:
[1] = target: Histamine H3 receptor (Rattus norvegicus, UniProt Q9QYN8); assay: Binding affinity for rat histamine H3 receptor on rat cortical cells
[2] = target: Histamine H3 receptor (Homo sapiens, UniProt Q9Y5N1); assay: Binding affinity for human histamine H3 receptor on human colon cells; assay type: cell-based
Chain of Histamine H3 receptor (Homo sapiens, UniProt Q9Y5N1) (Q9Y5N1 whole entry): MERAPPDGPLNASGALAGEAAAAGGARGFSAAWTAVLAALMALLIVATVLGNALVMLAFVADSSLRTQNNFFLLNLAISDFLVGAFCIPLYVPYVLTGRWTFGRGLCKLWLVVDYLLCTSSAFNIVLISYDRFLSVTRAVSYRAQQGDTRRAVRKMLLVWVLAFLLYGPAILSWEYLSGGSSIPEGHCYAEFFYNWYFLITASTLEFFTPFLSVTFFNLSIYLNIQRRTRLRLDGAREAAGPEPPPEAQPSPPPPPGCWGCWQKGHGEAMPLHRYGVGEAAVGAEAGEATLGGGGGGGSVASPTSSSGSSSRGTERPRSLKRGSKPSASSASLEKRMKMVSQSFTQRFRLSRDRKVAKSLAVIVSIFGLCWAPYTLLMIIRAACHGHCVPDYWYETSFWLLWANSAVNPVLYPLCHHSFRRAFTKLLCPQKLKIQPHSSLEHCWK

Chain of Histamine H3 receptor (Rattus norvegicus, UniProt Q9QYN8) (Q9QYN8 whole entry): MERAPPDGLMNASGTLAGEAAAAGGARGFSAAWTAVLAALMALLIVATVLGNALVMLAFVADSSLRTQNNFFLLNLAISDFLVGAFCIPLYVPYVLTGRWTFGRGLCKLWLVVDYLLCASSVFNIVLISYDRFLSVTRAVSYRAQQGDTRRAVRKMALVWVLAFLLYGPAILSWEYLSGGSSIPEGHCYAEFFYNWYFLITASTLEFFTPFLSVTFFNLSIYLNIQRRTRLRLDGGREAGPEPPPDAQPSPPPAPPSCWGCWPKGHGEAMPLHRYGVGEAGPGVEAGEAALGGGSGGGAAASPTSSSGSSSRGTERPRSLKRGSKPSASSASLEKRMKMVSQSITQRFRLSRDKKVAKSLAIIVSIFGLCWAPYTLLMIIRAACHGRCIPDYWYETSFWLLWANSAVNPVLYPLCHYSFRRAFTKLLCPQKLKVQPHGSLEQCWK

SMILES	Ki [1]	Ki [2]
CC(C)c1nc(-c2ccc(OCCCN3CCCN(C(=O)[C@@H](C)NC(=O)c4ccco4)CC3)cc2F)no1	2.1 nM	46 nM
Cc1ccc(C)c(C(=O)N[C@H](C)C(=O)N2CCN(CCCOc3ccc(-c4noc(CC5CCCC5)n4)c(F)c3)CC2)c1	6.6 nM	75 nM
CCc1nc(-c2ccc(OCCCN3CCCN(C(=O)[C@@H](C)NC(=O)c4ccco4)CC3)cc2F)no1		120 nM
CC(C)C(=O)N[C@H](C)C(=O)N1CCCN(CCCOc2ccc(-c3noc(CC4CCCC4)n3)c(F)c2)CC1	1.3 nM	14 nM
C[C@@H](NC(=O)c1cccc(Cl)c1)C(=O)N1CCN(CCCOc2ccc(-c3noc(CC4CCCC4)n3)c(F)c2)CC1	6.7 nM	36 nM
C[C@@H](NC(=O)c1ccc(Cl)c(Cl)c1)C(=O)N1CCCN(CCCOc2ccc(-c3noc(CC4CCCC4)n3)c(F)c2)CC1	31 nM	140 nM
C[C@@H](NC(=O)c1ccco1)C(=O)N1CCCN(CCCOc2ccc(-c3noc(CC4CCCC4)n3)c(F)c2)CC1	0.83 nM	9.3 nM
C[C@@H](NC(=O)c1cccs1)C(=O)N1CCN(CCCOc2ccc(-c3noc(-c4ccccc4)n3)c(F)c2)CC1		40 nM
COc1ccc(C(=O)N[C@H](C)C(=O)N2CCN(CCCOc3ccc(-c4noc(CC5CCCC5)n4)c(F)c3)CC2)cc1		11 nM
C[C@@H](NC(=O)c1ccco1)C(=O)N1CCCN(CCCOc2ccc(-c3noc([C@@H](C)NC(=O)OC(C)(C)C)n3)c(F)c2)CC1	28 nM	520 nM
CC(C)Cc1nc(-c2ccc(OCCCN3CCCN(C(=O)[C@@H](C)NC(=O)c4ccco4)CC3)cc2F)no1	1.7 nM	33 nM
C[C@@H](NC(=O)c1ccc(C#N)cc1)C(=O)N1CCCN(CCCOc2ccc(-c3noc(CC4CCCC4)n3)c(F)c2)CC1		12 nM
C[C@@H](NC(=O)c1ccco1)C(=O)N1CCCN(CCCOc2ccc(-c3noc(-c4ccccc4)n3)c(F)c2)CC1	4.1 nM	8.6 nM
C[C@@H](NC(=O)CC1CCCC1)C(=O)N1CCN(CCCOc2ccc(-c3noc(-c4ccccc4)n3)c(F)c2)CC1	21 nM	130 nM
C[C@@H](NC(=O)c1ccco1)C(=O)N1CCCN(CCCOc2ccc(-c3noc(C4CCCO4)n3)c(F)c2)CC1 (mixture of isomers)	7.7 nM	210 nM
C[C@@H](NC(=O)CCN1CCOCC1)C(=O)N1CCN(CCCOc2ccc(-c3noc(CC4CCCC4)n3)c(F)c2)CC1	1.1 nM	37 nM
COc1cccc(C(=O)N[C@H](C)C(=O)N2CCN(CCCOc3ccc(-c4noc(CC5CCCC5)n4)c(F)c3)CC2)c1	3.6 nM	34 nM
C[C@@H](NC(=O)c1cccc(C#N)c1)C(=O)N1CCN(CCCOc2ccc(-c3noc(CC4CCCC4)n3)c(F)c2)CC1	1.5 nM	35 nM
C[C@@H](N)C(=O)N1CCN(CCCOc2ccc(C(=O)C3CC3)cc2)CC1		760 nM
C[C@@H](NC(=O)c1ccco1)C(=O)N1CCCN(CCCOc2ccc(-c3noc(C4CCCCCC4)n3)c(F)c2)CC1	3.3 nM	15 nM
Cc1cccc(C(=O)N[C@H](C)C(=O)N2CCN(CCCOc3ccc(-c4noc(CC5CCCC5)n4)c(F)c3)CC2)c1	4.7 nM	31 nM
C[C@@H](NC(=O)c1ccc(C#N)cc1)C(=O)N1CCN(CCCOc2ccc(-c3noc(CC4CCCC4)n3)c(F)c2)CC1	1.2 nM	9.5 nM
CCCCCC(=O)c1ccc(OCCCN2CCN(C(=O)OCC)CC2)cc1	1 nM	

SMILES	Ki [1]	Ki [2]
CCC(CC)c1nc(-c2ccc(OCCCN3CCCN(C(=O)[C@@H](C)NC(=O)c4ccco4)CC3)cc2F)no1	2.3 nM	34 nM
C[C@@H](NC(=O)c1ccco1)C(=O)N1CCCN(CCCOc2ccc(-c3noc(-c4ccco4)n3)c(F)c2)CC1	5 nM	170 nM
COc1ccc(C(=O)N[C@H](C)C(=O)N2CCN(CCCOc3ccc(-c4noc(CC5CCCC5)n4)c(F)c3)CC2)cc1OC	2.5 nM	24 nM
C[C@@H](NC(=O)c1ccccc1F)C(=O)N1CCN(CCCOc2ccc(-c3noc(CC4CCCC4)n3)c(F)c2)CC1	2.9 nM	16 nM
C[C@H](NC(=O)OC(C)(C)C)c1nc(-c2ccc(OCCCN3CCCN(C(=O)[C@@H](C)NC(=O)c4ccco4)CC3)cc2F)no1	8.2 nM	140 nM
COc1ccc(C(=O)N[C@H](C)C(=O)N2CCCN(CCCOc3ccc(-c4noc(CC5CCCC5)n4)c(F)c3)CC2)cc1	1.1 nM	9.8 nM
CCCCC(=O)N[C@H](C)C(=O)N1CCCN(CCCOc2ccc(-c3noc(CC4CCCC4)n3)c(F)c2)CC1	1.4 nM	18 nM
C[C@@H](NC(=O)c1ccco1)C(=O)N1CCCN(CCCOc2ccc(-c3noc(C(C)(C)C)n3)c(F)c2)CC1	4.1 nM	85 nM
CCC(=O)N[C@H](C)C(=O)N1CCN(CCCOc2ccc(-c3noc(CC4CCCC4)n3)c(F)c2)CC1	7.2 nM	170 nM
C[C@@H](NC(=O)c1cccnc1)C(=O)N1CCN(CCCOc2ccc(-c3noc(CC4CCCC4)n3)c(F)c2)CC1	1.7 nM	20 nM
C[C@@H](NC(=O)c1ccco1)C(=O)N1CCCN(CCCOc2ccc(-c3noc(-c4cccnc4)n3)c(F)c2)CC1	6.9 nM	190 nM
C[C@@H](NC(=O)c1ccc(Cl)cc1)C(=O)N1CCN(CCCOc2ccc(-c3noc(CC4CCCC4)n3)c(F)c2)CC1	2.8 nM	24 nM
CC(C)CCC(=O)N[C@H](C)C(=O)N1CCCN(CCCOc2ccc(-c3noc(CC4CCCC4)n3)c(F)c2)CC1	2.8 nM	23 nM
C[C@@H](NC(=O)c1ccc(F)cc1)C(=O)N1CCCN(CCCOc2ccc(-c3noc(CC4CCCC4)n3)c(F)c2)CC1	1.2 nM	14 nM
C[C@@H](NC(=O)c1cnccn1)C(=O)N1CCN(CCCOc2ccc(-c3noc(-c4ccccc4)n3)c(F)c2)CC1	1.7 nM	29 nM
C[C@@H](NC(=O)c1ccco1)C(=O)N1CCCN(CCCOc2ccc(-c3noc(CC(C)(C)C)n3)c(F)c2)CC1	2.4 nM	40 nM
C[C@@H](NC(=O)c1ccco1)C(=O)N1CCCN(CCCOc2ccc(-c3noc(-c4cncs4)n3)c(F)c2)CC1	6.2 nM	240 nM
C[C@@H](NC(=O)c1ccno1)C(=O)N1CCN(CCCOc2ccc(-c3noc(-c4ccccc4)n3)c(F)c2)CC1		86 nM
C[C@@H](NC(=O)c1ccccc1Cl)C(=O)N1CCN(CCCOc2ccc(-c3noc(CC4CCCC4)n3)c(F)c2)CC1		8.6 nM
C[C@@H](NC(=O)[C@@H]1CCCO1)C(=O)N1CCN(CCCOc2ccc(-c3noc(-c4ccccc4)n3)c(F)c2)CC1		80 nM
C[C@@H](NC(=O)c1ccco1)C(=O)N1CCN(CCCOc2ccc(-c3noc(-c4ccccc4)n3)c(F)c2)CC1 (stereo in doubt; 13p)		43 nM
CC(C)CC(=O)N[C@H](C)C(=O)N1CCN(CCCOc2ccc(-c3noc(-c4ccccc4)n3)c(F)c2)CC1		56 nM

Further compounds by falling Ki [2], results first:

Ki [1]	Ki [2]	SMILES
6.4 nM	100 nM	C[C@@H](NC(=O)CC(C)(C)C)C(=O)N1CCN(CCCOc2ccc(-c3noc(CC4CCCC4)n3)c(F)c2)CC1
10 nM	100 nM	CCOCC(=O)N[C@H](C)C(=O)N1CCN(CCCOc2ccc(-c3noc(-c4ccccc4)n3)c(F)c2)CC1
4.2 nM	92 nM	C[C@@H](NC(=O)[C@H]1CCCO1)C(=O)N1CCN(CCCOc2ccc(-c3noc(-c4ccccc4)n3)c(F)c2)CC1
	88 nM	C[C@@H](NC(=O)CCN1CCOCC1)C(=O)N1CCN(CCCOc2ccc(-c3noc(-c4ccccc4)n3)c(F)c2)CC1
4.9 nM	74 nM	C[C@@H](NC(=O)CC(C)(C)C)C(=O)N1CCCN(CCCOc2ccc(-c3noc(CC4CCCC4)n3)c(F)c2)CC1
14 nM	68 nM	CC(C)CCC(=O)N[C@H](C)C(=O)N1CCN(CCCOc2ccc(-c3noc(-c4ccccc4)n3)c(F)c2)CC1
24 nM	65 nM	C[C@@H](NC(=O)c1cccc(OC(F)(F)F)c1)C(=O)N1CCN(CCCOc2ccc(-c3noc(CC4CCCC4)n3)c(F)c2)CC1
7 nM	54 nM	COc1ccccc1C(=O)N[C@H](C)C(=O)N1CCN(CCCOc2ccc(-c3noc(CC4CCCC4)n3)c(F)c2)CC1
6.9 nM	49 nM	C[C@@H](NC(=O)C1CCCCC1)C(=O)N1CCN(CCCOc2ccc(-c3noc(-c4ccccc4)n3)c(F)c2)CC1
2 nM	40 nM	CC(=O)N[C@H](C)C(=O)N1CCCN(CCCOc2ccc(-c3noc(CC4CCCC4)n3)c(F)c2)CC1
2 nM	36 nM	C[C@@H](NC(=O)C(C)(C)C)C(=O)N1CCCN(CCCOc2ccc(-c3noc(CC4CCCC4)n3)c(F)c2)CC1
4.2 nM	28 nM	C[C@@H](NC(=O)c1ccsc1)C(=O)N1CCN(CCCOc2ccc(-c3noc(-c4ccccc4)n3)c(F)c2)CC1
	27 nM	C[C@@H](NC(=O)c1cccnc1)C(=O)N1CCN(CCCOc2ccc(-c3noc(-c4ccccc4)n3)c(F)c2)CC1
1.1 nM	26 nM	CCC(=O)N[C@H](C)C(=O)N1CCCN(CCCOc2ccc(-c3noc(CC4CCCC4)n3)c(F)c2)CC1
2.6 nM	21 nM	C[C@@H](NC(=O)c1ccco1)C(=O)N1CCCN(CCCOc2ccc(-c3noc(CC4CCCCC4)n3)c(F)c2)CC1
2.4 nM	19 nM	C[C@@H](NC(=O)c1ccco1)C(=O)N1CCCN(CCCOc2ccc(-c3noc(C4CCCCC4)n3)c(F)c2)CC1
1.4 nM	17 nM	Cc1ccc(C(=O)N[C@H](C)C(=O)N2CCCN(CCCOc3ccc(-c4noc(CC5CCCC5)n4)c(F)c3)CC2)cc1
1.5 nM	17 nM	C[C@@H](NC(=O)c1ccc(F)cc1)C(=O)N1CCN(CCCOc2ccc(-c3noc(CC4CCCC4)n3)c(F)c2)CC1
1.3 nM	16 nM	C[C@@H](NC(=O)c1ccc(O)cc1)C(=O)N1CCN(CCCOc2ccc(-c3noc(CC4CCCC4)n3)c(F)c2)CC1
2.4 nM	13 nM	Cc1ccccc1C(=O)N[C@H](C)C(=O)N1CCN(CCCOc2ccc(-c3noc(CC4CCCC4)n3)c(F)c2)CC1
0.58 nM	13 nM	C[C@@H](NC(=O)CCN1CCOCC1)C(=O)N1CCCN(CCCOc2ccc(-c3noc(CC4CCCC4)n3)c(F)c2)CC1

— ChEMBL document CHEMBL1147425, “Structure-activity relationships of non-imidazole H(3) receptor ligands. Part 3: 5-Substituted 3-phenyl-1,2,4-oxadiazoles as potent antagonists” (Bioorg Med Chem Lett, 2004)
